Structures can show the parent of a compound that is named as a salt.
What was measured:
Assay type in all cases: biochemical
[1] = biological target: T1, recombinant human Lysyl Oxidase-Like 2 (LOXL2) (Homo sapiens, UniProt Q9Y4K0); experiment: Amplex Red HRP-coupled amine oxidase assay, recombinant human LOXL2; conditions: 60 min incubation with enzyme at 37° C., putrescine substrate, read-out: Inhibitory activity (IC50, nM) human LOXL2
T1 construct: purchased R&D systems
T1 sequence (Q9Y4K0 26-774): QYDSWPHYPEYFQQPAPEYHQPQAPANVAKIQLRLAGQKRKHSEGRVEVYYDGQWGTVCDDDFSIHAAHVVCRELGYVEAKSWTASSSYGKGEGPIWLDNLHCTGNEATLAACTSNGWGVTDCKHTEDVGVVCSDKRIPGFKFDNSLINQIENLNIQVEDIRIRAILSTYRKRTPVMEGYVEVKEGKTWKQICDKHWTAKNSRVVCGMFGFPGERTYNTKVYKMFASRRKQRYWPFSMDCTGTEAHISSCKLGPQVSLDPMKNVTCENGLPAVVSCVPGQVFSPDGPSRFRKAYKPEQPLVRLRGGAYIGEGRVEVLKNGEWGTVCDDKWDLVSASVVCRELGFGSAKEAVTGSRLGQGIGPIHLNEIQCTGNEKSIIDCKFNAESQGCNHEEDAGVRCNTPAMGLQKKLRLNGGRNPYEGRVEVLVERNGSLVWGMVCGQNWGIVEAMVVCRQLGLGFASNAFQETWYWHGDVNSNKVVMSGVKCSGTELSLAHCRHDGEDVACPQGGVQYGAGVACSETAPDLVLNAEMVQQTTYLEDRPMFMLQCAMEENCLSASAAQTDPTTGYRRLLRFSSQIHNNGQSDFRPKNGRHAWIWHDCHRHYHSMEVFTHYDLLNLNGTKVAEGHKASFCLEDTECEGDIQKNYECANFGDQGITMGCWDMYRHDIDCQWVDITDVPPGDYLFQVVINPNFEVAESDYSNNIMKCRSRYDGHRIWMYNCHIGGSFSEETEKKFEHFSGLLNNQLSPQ
Summary of the method: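 Putrescine substrate (30 mM) in 50 mM sodium phosphate pH 7.4, 37 °C; compounds preincubated 60 min with enzyme, 1% DMSO final, six-point curves. H2O2 detected via 400 μM Amplex Red/2 U/mL HRP, fluorescence (ex 530/em 590 nm) after 1 h; IC50 from four-parameter logistic fit of % signal reduction.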

[2] = biological target: T2, recombinant human DAO (diamine oxidase) (Homo sapiens, UniProt P19801); experiment: Amplex Red HRP-coupled amine oxidase assay, recombinant human DAO; conditions: 1 mM putrescine substrate, read-out: Inhibitory activity (IC50, nM) DAO
T2 construct: purchased R&D systems
T2 sequence (P19801 20-751): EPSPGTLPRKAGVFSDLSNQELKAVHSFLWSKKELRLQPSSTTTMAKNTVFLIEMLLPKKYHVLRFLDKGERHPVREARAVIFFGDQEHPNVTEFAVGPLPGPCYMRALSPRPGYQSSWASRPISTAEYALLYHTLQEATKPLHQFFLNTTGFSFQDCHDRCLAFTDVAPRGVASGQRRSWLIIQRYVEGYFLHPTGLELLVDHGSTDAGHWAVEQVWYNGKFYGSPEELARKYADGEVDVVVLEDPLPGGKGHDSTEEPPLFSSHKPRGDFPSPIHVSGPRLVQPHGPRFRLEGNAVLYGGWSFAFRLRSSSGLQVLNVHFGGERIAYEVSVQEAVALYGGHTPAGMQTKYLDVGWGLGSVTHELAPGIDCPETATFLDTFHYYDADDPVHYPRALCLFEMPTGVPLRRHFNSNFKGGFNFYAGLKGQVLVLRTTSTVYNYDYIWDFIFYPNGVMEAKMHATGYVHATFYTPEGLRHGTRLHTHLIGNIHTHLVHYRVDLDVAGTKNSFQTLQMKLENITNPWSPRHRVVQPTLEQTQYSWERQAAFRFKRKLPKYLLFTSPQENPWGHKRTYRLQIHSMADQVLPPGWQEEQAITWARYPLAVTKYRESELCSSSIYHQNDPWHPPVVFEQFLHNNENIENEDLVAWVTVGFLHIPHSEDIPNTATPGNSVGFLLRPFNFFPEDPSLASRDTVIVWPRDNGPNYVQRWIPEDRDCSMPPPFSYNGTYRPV
Method: (§1) The activities of the compounds according to the present invention against recombinant human Lysyl Oxidase-Like 2 (recombinant human LOXL2, R&D systems) were evaluated by measuring the levels of hydrogen peroxide in the HRP (horseradish peroxidase) coupled reactions, with the Amplex Red Hydrogen Peroxide Assay Kit (Molecular Probes, Invitrogen, USA). The tests were carried out at 37° C., and putrescine was used as a substrate. In the HRP coupling reaction, the oxidation of 10-acetyl-3,7-dihydroxyphenoxazine (Amplex Red reagent) by hydrogen peroxide generates a fluorescent product, i.e., resorufin. Briefly, the test compounds were dissolved in dimethyl sulfoxide (DMSO) at a concentration of 20 mM. Dose-response measurements were carried out by serial dilutions in DMSO to generate a six-point curve. The upper concentration was adjusted according to the potency of the compound, and then diluted with the reaction buffer to obtain a final DMSO concentration of 1%. Purified human LOXL2 in 50 mM sodium phosphate buffer (pH7.4) was added to each well of a 96 well black plate. The test compounds dissolved in DMSO were incubated with the human LOXL2 enzyme at 37° C. for 60 minutes. After the incubation for 60 minutes, a reaction mixture containing 400 μM Amplex Red reagent, 30 mM putrescine, and 2 U/mL HRP in 50 mM sodium phosphate buffer (pH 7.4) was added to each well. Fluorescence was measured with a microplate reader (Flexstation3, Molecular Devices), under the conditions of excitation at 530 nm and emission at 590 nm, 1 hour after the addition of the mixture. Inhibition by each compound was measured as % reduction in signal, compared to the control without an inhibitor (diluted DMSO only). The data were fixed to a four-variable logistic model, and […] values were calculated using the GraphPad Prism program.
(§2) And, the activities of the compounds according to the present invention against recombinant human MAO-A (monoamine oxidase-A, Sigma-Aldrich) and recombinant human MAO-B (monoamine oxidase-B, Sigma-Aldrich) were evaluated in a similar manner to the activity evaluation method for recombinant human LOXL2, using 0.5 mM tyramine and 1 mM benzylamine as a substrate, respectively. In addition, the activities of the compounds according to the present invention against recombinant human DAO (diamine oxidase, R&D systems) were evaluated in a similar manner to the activity evaluation method for recombinant human LOXL2, using 1 mM putrescine as a substrate.

[3] = biological target: T3, recombinant human MAO-B (monoamine oxidase-B) (Homo sapiens, UniProt P27338); experiment: Amplex Red HRP-coupled amine oxidase assay, recombinant human MAO-B; conditions: 1 mM benzylamine substrate, read-out: Inhibitory activity (IC50, nM) MAO-B
T3 construct: purchased Sigma-Aldrich
T3 sequence (P27338 1-520): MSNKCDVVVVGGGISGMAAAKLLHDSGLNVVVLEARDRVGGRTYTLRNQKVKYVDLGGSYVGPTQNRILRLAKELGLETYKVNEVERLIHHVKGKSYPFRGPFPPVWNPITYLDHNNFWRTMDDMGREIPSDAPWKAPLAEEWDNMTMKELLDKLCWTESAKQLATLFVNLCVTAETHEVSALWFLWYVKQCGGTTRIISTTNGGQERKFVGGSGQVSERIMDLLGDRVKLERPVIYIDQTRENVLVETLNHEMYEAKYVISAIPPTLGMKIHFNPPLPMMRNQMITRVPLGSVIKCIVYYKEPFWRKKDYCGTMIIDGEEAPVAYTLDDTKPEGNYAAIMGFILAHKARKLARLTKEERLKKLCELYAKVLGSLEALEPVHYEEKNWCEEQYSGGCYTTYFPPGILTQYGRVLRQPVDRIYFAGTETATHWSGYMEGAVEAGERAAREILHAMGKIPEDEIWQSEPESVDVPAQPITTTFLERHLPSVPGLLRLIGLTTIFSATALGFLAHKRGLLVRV
Method: as §1, §2

[4] = biological target: T4, recombinant human MAO-A (monoamine oxidase-A) (Homo sapiens, UniProt P21397); experiment: Amplex Red HRP-coupled amine oxidase assay, recombinant human MAO-A; conditions: 0.5 mM tyramine substrate, read-out: Inhibitory activity (IC50, nM) MAO-A
T4 construct: purchased Sigma-Aldrich
T4 sequence (P21397 1-527): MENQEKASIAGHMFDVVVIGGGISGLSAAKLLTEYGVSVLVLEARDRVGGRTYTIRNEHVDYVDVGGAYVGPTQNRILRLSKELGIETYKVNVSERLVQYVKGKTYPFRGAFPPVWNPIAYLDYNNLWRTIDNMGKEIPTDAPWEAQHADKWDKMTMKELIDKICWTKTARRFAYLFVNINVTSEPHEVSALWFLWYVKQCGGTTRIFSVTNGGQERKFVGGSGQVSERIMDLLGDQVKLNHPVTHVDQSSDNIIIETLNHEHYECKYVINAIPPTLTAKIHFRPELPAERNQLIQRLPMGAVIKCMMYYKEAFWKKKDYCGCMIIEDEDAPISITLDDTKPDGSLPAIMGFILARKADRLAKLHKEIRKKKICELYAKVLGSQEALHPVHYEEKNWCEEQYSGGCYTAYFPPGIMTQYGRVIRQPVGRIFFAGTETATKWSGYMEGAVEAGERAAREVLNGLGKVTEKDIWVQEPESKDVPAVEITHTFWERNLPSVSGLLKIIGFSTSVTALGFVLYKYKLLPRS
Method: as §1, §2

IC50 [1] | IC50 [2] | IC50 [3] | IC50 [4] | Compound
16.7 nM | 986 nM | > 100000 nM | > 100000 nM | COC(=O)c1cc(-c2cccc(S(=O)(=O)N3CCCC3)c2)c2ncn(C/C(F)=C/CN)c2c1 [Example 23, methyl (Z)-1-(4-amino-2-fluorobut-2-en-1-yl)-4-(3-(pyrrolidin-1-ylsulfonyl)phenyl)-1H-benzo[d]imidazol-6-carboxylate hydrochloride]
19.9 nM | 5070 nM | > 100000 nM | 53300 nM | COC(=O)c1cc(-c2cccc(S(=O)(=O)N3CCC(F)(F)C3)c2)c2ncn(C/C(F)=C/CN)c2c1 [Example 22, methyl (Z)-1-(4-amino-2-fluorobut-2-en-1-yl)-4-(3-((3,3-difluoropyrrolidine-1-yl)sulfonyl)phenyl)-1H-benzo[d]imidazol-6-carboxylate hydrochloride]
11.9 nM | 4440 nM | 46600 nM | > 100000 nM | CNS(=O)(=O)c1ccc(OC)c(-c2cc(C(=O)OC)cc3c2nnn3C/C(F)=C/CN)c1 [Example 117, methyl (Z)-1-(4-amino-2-fluorobut-2-en-1-yl)-4-(2-methoxy-5-(N-methylsulfamoyl)phenyl)-1H-benzo[d][1,2,3]triazol-6-carboxylate hydrochloride]
22.7 nM | 380 nM | > 100000 nM | 12200 nM | COC(=O)c1cc(-c2ccc(OC)c(S(=O)(=O)N(C)C)c2)c2ncn(C/C(F)=C/CN)c2c1 [Example 21, methyl (Z)-1-(4-amino-2-fluorobut-2-en-1-yl)-4-(3-(N,N-dimethylsulfamoyl)-4-methoxyphenyl)-1H-benzo[d]imidazol-6-carboxylate hydrochloride]
37.6 nM | 495 nM | > 100000 nM | > 100000 nM | CCS(=O)(=O)c1cccc(-c2cc(C(=O)OC)cc3c2ncn3C/C(F)=C/CN)c1 [Example 34, methyl (Z)-1-(4-amino-2-fluorobut-2-en-1-yl)-4-(3-(ethylsulfonyl)phenyl)-1H-benzo[d]imidazol-6-carboxylate hydrochloride]
28 nM | 1610 nM | > 100000 nM | 7890 nM | COC(=O)c1cc(-c2cccc(S(=O)(=O)N(C)C)c2)c2nc(C)n(C/C(F)=C/CN)c2c1 [Example 66, methyl (Z)-1-(4-amino-2-fluorobut-2-en-1-yl)-4-(3-(N,N-dimethylsulfamoyl)phenyl)-2-methyl-1H-benzo[d]imidazol-6-carboxylate hydrochloride]
104 nM | > 100000 nM | > 100000 nM | > 100000 nM | CS(=O)(=O)c1cccc(-c2cc(C(F)(F)F)cc3c2ncn3C/C(F)=C/CN)c1 [Example 13, (Z)-3-fluoro-4-(4-(3-(methylsulfonyl)phenyl)-6-(trifluoromethyl)-1H-benzo[d]imidazol-1-yl) but-2-en-1-amine hydrochloride]
35.1 nM | 1820 nM | > 100000 nM | > 100000 nM | CNS(=O)(=O)c1ccc(OC)c(-c2cc(C#N)cc3c2ncn3C/C(F)=C/CN)c1 [Example 183, (Z)-3-(1-(4-amino-2-fluorobut-2-en-1-yl)-6-cyano-1H-benzo[d]imidazol-4-yl)-4-methoxy-N-methylbenzenesulfonamide hydrochloride]
35 nM | 2410 nM | > 100000 nM | 26500 nM | NC/C=C(\F)Cn1cnc2c(-c3cccc(S(=O)(=O)N4CCCC4)c3)cc(F)cc21 [Example 7, (Z)-3-fluoro-4-(6-fluoro-4-(3-(pyrrolidin-1-ylsulfonyl)phenyl)-1H-benzo[d]imidazol-1-yl)but-2-en-1-amine hydrochloride]
15 nM | 32100 nM | 26500 nM | > 100000 nM | CN(C)S(=O)(=O)c1cccc(-c2cccc3c2nnn3C/C(F)=C/CN)c1 [Example 112, (Z)-3-(1-(4-amino-2-fluorobut-2-en-1-yl)-1H-benzo[d][1,2,3]triazol-4-yl)-N,N-dimethylbenzenesulfonamide hydrochloride]

Source: patent publication US12686665B2, “Bicyclic fused ring derivative or salt thereof and pharmaceutical composition comprising same” (YUHAN CORPORATION, priority 2021, dated 2026)
